From patent US5278152A, “2-formylbenzylphosphonic acid derivatives useful for the treatment of diseases caused by viruses” (priority 1989, dated 1994)
Several values for one entry are separate records, joined by “and”; a condition that tells them apart may be missing. Equal values may be shown once. Where a name gives a salt, the structure may show the parent alone. Read-outs that look alike come from different tables or passages of the source.

Experiments:
influenza A2 = assay type: in vivo, NMRI mice; conditions: twice daily over 2.5 days; for Number of surviving animals: groups of 5 mice
in vitro = conditions: hela and vero cells
Herpes simplex Type 1 = Herpes simplex Type 1 infection of NMRI mice, survival; assay type: in vivo; conditions: twice daily over 2.5 days; for Surviving animals: groups of 5 mice
Procedure: Pathogen-free NMRI mice having a weight of about 15 g were infected intraperitoneally with Herpes simplex Type 1 and then treated intraperitoneally, orally or subcutaneously with the compounds mentioned in Table 1. The treatment was carried out twice daily over the course of 2.5 days, starting after infection. The result of treatment was determined on the basis of the course of the disease and the survival rate compared to the untreated infection controls. The controls received a water-solublemethylhydroxyethylcellulose (viscosity […], administered in 2% strength solution) instead of the compounds to be tested. The experiments were carried out using groups of 5 mice each per preparation.
The chemotherapeutic action of the compound A can be seen from Table 1.

[1] = system: myxoviruses (influenza A2); experiment: microbe, parasite or virus in culture; assay type: cell-based, influenza A2 virus in Hela and Vero cells; conditions: read-out: MIC (minimum inhibitory concentration)
[2] = literature; cited from earlier work
viruses = conditions: literature; cited from earlier work

In the case of CCOP(=O)(Cc1ccccc1C=NNC(=O)c1cccnc1)OCC [E, Diethyl 2-formylbenzylphosphonate nicotinic acid hydrazone], the Average survival time (influenza A2; po, 0.25 mg/kg) is reported as 8.0 days, the “Number of surviving animals” value (influenza A2; po, 0.25 mg/kg) is reported as 4 and the Average survival time (influenza A2; po, 2.5 mg/kg) is reported as 6.7 days. For the same compound, the “Number of surviving animals” value (influenza A2; po, 2.5 mg/kg) was 3, the Average survival time (influenza A2; po, 25 mg/kg) was 6.0 days and the “Number of surviving animals” value (influenza A2; po, 25 mg/kg) was 3.

With CCOP(=O)(Cc1ccccc1C1O[C@H](c2ccccc2)[C@H](C)N1C)OCC (single isomer, unassigned) [F, Diethyl 2-(3,4-dimethyl-5-phenyloxazolidin-2-yl)benzylphosphonate] the Average survival time (influenza A2; po, 0.25 mg/kg) was 6.5 days, the “Number of surviving animals” value (influenza A2; po, 0.25 mg/kg) was 3 and the Average survival time (influenza A2; po, 2.5 mg/kg) was 6.5 days. For the same compound, the “Number of surviving animals” value (influenza A2; po, 2.5 mg/kg) was 3, the Average survival time (influenza A2; po, 25 mg/kg) was 7.0 days and the “Number of surviving animals” value (influenza A2; po, 25 mg/kg) was 2.

CCOP(=O)(O)Cc1ccccc1C=O [C, monoethyl 2-formylbenzylphosphonate triethylammonium salt] showed an MNTC (in vitro) of over 400 µg/mL, an Average survival time (Herpes simplex Type 1; po, 3 mg/kg) of 9.0 days and a Surviving animals (Herpes simplex Type 1; po, 3 mg/kg) of 4. For the same compound, the Average survival time (Herpes simplex Type 1; po, 10 mg/kg) was 8.0 days, the Surviving animals (Herpes simplex Type 1; po, 10 mg/kg) was 3 and the Average survival time (Herpes simplex Type 1; po, 30 mg/kg) was 8.3 days. It also gave a Surviving animals (Herpes simplex Type 1; po, 30 mg/kg) of 1, an Average survival time (Herpes simplex Type 1; sc, 3 mg/kg) of 8.5 days and a Surviving animals (Herpes simplex Type 1; sc, 3 mg/kg) of 1. It also gave an Average survival time (Herpes simplex Type 1; sc, 10 mg/kg) of 8.0 days, a Surviving animals (Herpes simplex Type 1; sc, 10 mg/kg) of 3 and an Average survival time (Herpes simplex Type 1; sc, 30 mg/kg) of 10.0 days. The Surviving animals (Herpes simplex Type 1; sc, 30 mg/kg) was 4, the “Number of surviving animals” value (influenza A2; po, 0.25 mg/kg) was 5 and the Average survival time (influenza A2; po, 2.5 mg/kg) was 6.0 days. The “Number of surviving animals” value (influenza A2; po, 2.5 mg/kg) was 2, the “Number of surviving animals” value (influenza A2; po, 25 mg/kg) was 5 and the “Number of surviving animals” value (influenza A2; sc, 0.25 mg/kg) was 5. The “Number of surviving animals” value (influenza A2; sc, 2.5 mg/kg) was 5, the Average survival time (influenza A2; sc, 25 mg/kg) was 7.5 days and the “Number of surviving animals” value (influenza A2; sc, 25 mg/kg) was 3. It also gave an MIC [1] of 44.4 µg/mL.

With O=Cc1ccccc1CP(=O)(O)O [B, 2-formylbenzylphosphonic acid di(triethylammonium) salt] the MNTC (in vitro) was over 400 µg/mL, the Average survival time (Herpes simplex Type 1; po, 3 mg/kg) was 7.0 days and the Surviving animals (Herpes simplex Type 1; po, 3 mg/kg) was 3. The Average survival time (Herpes simplex Type 1; po, 10 mg/kg) was 8.3 days, the Surviving animals (Herpes simplex Type 1; po, 10 mg/kg) was 2 and the Average survival time (Herpes simplex Type 1; po, 30 mg/kg) was 6.0 days. It also gave a Surviving animals (Herpes simplex Type 1; po, 30 mg/kg) of 3, an Average survival time (Herpes simplex Type 1; sc, 3 mg/kg) of 7.8 days and a Surviving animals (Herpes simplex Type 1; sc, 3 mg/kg) of 2. It also gave an Average survival time (Herpes simplex Type 1; sc, 10 mg/kg) of 7.0 days, a Surviving animals (Herpes simplex Type 1; sc, 10 mg/kg) of 3 and an Average survival time (Herpes simplex Type 1; sc, 30 mg/kg) of 6.5 days. The Surviving animals (Herpes simplex Type 1; sc, 30 mg/kg) was 3, the Average survival time (influenza A2; po, 1.5 mg/kg) was 8.5 days and the “Number of surviving animals” value (influenza A2; po, 1.5 mg/kg) was 3. The “Number of surviving animals” value (influenza A2; po, 15 mg/kg) was 5, the Average survival time (influenza A2; po, 150 mg/kg) was 7.0 days and the “Number of surviving animals” value (influenza A2; po, 150 mg/kg) was 3. The Average survival time (influenza A2; sc, 1.5 mg/kg) was 8.5 days, the “Number of surviving animals” value (influenza A2; sc, 1.5 mg/kg) was 1 and the Average survival time (influenza A2; sc, 15 mg/kg) was 8.0 days. The “Number of surviving animals” value (influenza A2; sc, 15 mg/kg) was 4 and the MIC [1] was 4.94 µg/mL.

In the case of CCOP(=O)(Cc1ccccc1C=NNC(N)=S)OCC [D, Diethyl 2-formylbenzylphosphonate thiosemicarbazone], the Average survival time (influenza A2; po, 0.25 mg/kg) is reported as 8.0 days, the “Number of surviving animals” value (influenza A2; po, 0.25 mg/kg) is reported as 4 and the Average survival time (influenza A2; po, 2.5 mg/kg) is reported as 7.0 days. The “Number of surviving animals” value (influenza A2; po, 2.5 mg/kg) was 1, the Average survival time (influenza A2; po, 25 mg/kg) was 7.3 days and the “Number of surviving animals” value (influenza A2; po, 25 mg/kg) was 2.

In the case of O=C(O)P(=O)(O)O [PFA, phosphonoformic acid], the toxic side effects [2] is given as “some toxic side effects” and the antiviral activity (viruses) is given as “wide antiviral spectrum”.

For O=C(O)CP(=O)(O)O [PAA, phosphonoacetic acid], the antiviral activity (viruses) is listed as “exhibit antiviral activity”.

For NC12CC3CC(CC(C3)C1)C2 [Amantadine, reference compound], the Average survival time (influenza A2; po, 80 mg/kg) was 8.0 days, the “Number of surviving animals” value (influenza A2; po, 80 mg/kg, 80 mg/kg) was 5 and 4 and the “Number of surviving animals” value (influenza A2; sc, 80 mg/kg) was 5.

Compound CCOP(=O)(Cc1ccccc1C=O)OCC [A, diethyl 2-formylbenzylphosphonate] has an Average survival time (Herpes simplex Type 1; ip, 3 mg/kg) of 8.0 days, a Surviving animals (Herpes simplex Type 1; ip, 3 mg/kg) of 0 and an Average survival time (Herpes simplex Type 1; ip, 10 mg/kg) of 9.0 days. It also gave a Surviving animals (Herpes simplex Type 1; ip, 10 mg/kg) of 4, an Average survival time (Herpes simplex Type 1; ip, 30 mg/kg) of 8.5 days and a Surviving animals (Herpes simplex Type 1; ip, 30 mg/kg) of 3. The Average survival time (Herpes simplex Type 1; po, 2.5 mg/kg) was 8.0 days, the Surviving animals (Herpes simplex Type 1; po, 2.5 mg/kg) was 4 and the Surviving animals (Herpes simplex Type 1; po, 25 mg/kg) was 5. It also gave an Average survival time (Herpes simplex Type 1; po, 250 mg/kg) of 8.0 days, a Surviving animals (Herpes simplex Type 1; po, 250 mg/kg) of 4 and an Average survival time (Herpes simplex Type 1; sc, 2.5 mg/kg) of 9.0 days. It also gave a Surviving animals (Herpes simplex Type 1; sc, 2.5 mg/kg) of 2, an Average survival time (Herpes simplex Type 1; sc, 25 mg/kg) of 7.2 days and a Surviving animals (Herpes simplex Type 1; sc, 25 mg/kg) of 0. The Average survival time (Herpes simplex Type 1; sc, 250 mg/kg) was 8.4 days, the Surviving animals (Herpes simplex Type 1; sc, 250 mg/kg) was 0 and the Average survival time (influenza A2; po, 2.5 mg/kg) was 9.0 days. The “Number of surviving animals” value (influenza A2; po, 2.5 mg/kg) was 4, the Average survival time (influenza A2; po, 3 mg/kg) was 8.0 days and the “Number of surviving animals” value (influenza A2; po, 3 mg/kg) was 4. The Average survival time (influenza A2; po, 10 mg/kg) was 7.0 days, the “Number of surviving animals” value (influenza A2; po, 10 mg/kg) was 4 and the Average survival time (influenza A2; po, 25 mg/kg) was 6.3 days. For the same compound, the “Number of surviving animals” value (influenza A2; po, 25 mg/kg) was 2, the Average survival time (influenza A2; po, 30 mg/kg) was 7.3 days and the “Number of surviving animals” value (influenza A2; po, 30 mg/kg) was 2. For the same compound, the Average survival time (influenza A2; sc, 2.5 mg/kg) was 6.7 days, the “Number of surviving animals” value (influenza A2; sc, 2.5 mg/kg) was 2 and the Average survival time (influenza A2; sc, 25 mg/kg) was 7.0 days. The “Number of surviving animals” value (influenza A2; sc, 25 mg/kg) was 3.

In the case of O=P(O)(O)CP(=O)(O)O [MDP, methylenediphosphonic acid], the antiviral activity (viruses) is listed as “exhibit antiviral activity”.
